# Where two headings read alike, the source gives them in different places.
# Target: human cannabinoid CB2 receptor (Homo sapiens, UniProt P34972)
# Test: Cannabinoid CB2 receptor agonist activity (yeast reporter assay, FDGlu fluorescence)
# Assay type: cell-based
# Settings: for Emax: read-out: efficacy value (Emax relative to HU210) at the cloned human cannabinoid CB2 receptor
# Procedure, shortened: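 S. cerevisiae MMY23 expressing human CB2 with a Gpa1/Gαi3 chimeric G-protein, grown 24 h at 30 °C with agonist (1% DMSO) in selective media containing 10 mM 3-aminotriazole and FDGlu, pH 7.0. Fluorescein fluorescence (485/535 nm) fitted by four-parameter curve; Emax and EMR relative to HU210.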
# [1] = EC50 value at the cloned human cannabinoid CB2 receptor
# human cannabinoid CB2 receptor, sequence (P34972 whole entry): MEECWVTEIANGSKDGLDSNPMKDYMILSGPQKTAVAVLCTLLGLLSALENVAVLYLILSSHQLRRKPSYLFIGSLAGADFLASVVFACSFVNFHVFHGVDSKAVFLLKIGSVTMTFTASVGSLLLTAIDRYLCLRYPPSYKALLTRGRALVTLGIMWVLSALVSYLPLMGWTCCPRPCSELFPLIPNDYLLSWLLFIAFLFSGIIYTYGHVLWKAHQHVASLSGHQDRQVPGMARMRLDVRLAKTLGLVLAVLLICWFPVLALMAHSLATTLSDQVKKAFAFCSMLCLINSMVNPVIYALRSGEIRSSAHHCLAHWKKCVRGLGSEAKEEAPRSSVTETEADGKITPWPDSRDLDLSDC
EC50 (read-out: EC50 value at the cloned human cannabinoid CB2 receptor),Structure (SMILES),EC50 [1],Emax
–,"O=C(NCC1CCOCC1)c1cnc(Nc2cc(F)cc(C(F)(F)F)c2)nc1C(F)(F)F [Example 180, 2-(3-Fluoro-5-(trifluoromethyl)phenylamino)-4-trifluoromethyl-pyrimidine-5-carboxylic acid (tetrahydropyran-4-ylmethyl)-amide]",20 to 300 nM,> 50%
–,"O=C(NCC1CCOCC1)c1cnc(Nc2cccc(C(F)(F)F)c2F)nc1C(F)(F)F [Example 181, 2-(2-Fluoro-3-(trifluoromethyl)phenylamino)-4-trifluoromethyl-pyrimidine-5-carboxylic acid (tetrahydropyran-4-ylmethyl)-amide]",20 to 300 nM,> 50%
–,"CSc1c(Nc2ncc(C(=O)NCC3CCOCC3)c(C(F)(F)F)n2)cccc1C(F)(F)F [Example 182, 2-(2-Methylthio-3-(trifluoromethyl)phenylamino)-4-trifluoromethyl-pyrimidine-5-carboxylic acid (tetrahydropyran-4-ylmethyl)-amide]",20 to 300 nM,> 50%
–,"Cc1ccc(Cl)cc1Nc1ncc(C(=O)NCC2CCCC2)c(C(F)(F)F)n1 [Example 183, 2-(5-Chloro-2-methylphenylamino)-4-trifluoromethyl-pyrimidine-5-carboxylic acid (cyclopentylmethyl)-amide]",20 to 300 nM,> 50%
–,"Cc1ccc(Nc2ncc(C(=O)NCC3CCOCC3)c(C(F)(F)F)n2)cc1Cl [Example 184, 2-(3-Chloro-4-methylphenylamino)-4-trifluoromethyl-pyrimidine-5-carboxylic acid (tetrahydropyran-4-ylmethyl)-amide]",20 to 300 nM,> 50%
–,"Cc1c(Cl)cccc1Nc1ncc(C(=O)NCC2CCOCC2)c(C(F)(F)F)n1 [Example 185, 2-(3-Chloro-2-methylphenylamino)-4-trifluoromethyl-pyrimidine-5-carboxylic acid (tetrahydropyran-4-ylmethyl)-amide]",20 to 300 nM,> 50%
–,"COc1cc(Nc2ncc(C(=O)NCC3CCOCC3)c(C(F)(F)F)n2)ccc1Cl [Example 186, 2-(4-Chloro-3-methoxyphenylamino)-4-trifluoromethyl-pyrimidine-5-carboxylic acid (tetrahydropyran-4-ylmethyl)-amide]",20 to 300 nM,> 50%
–,"Cc1cc(Nc2ncc(C(=O)NCC3CCOCC3)c(C(F)(F)F)n2)ccc1Cl [Example 187, 2-(4-Chloro-3-methylphenylamino)-4-trifluoromethyl-pyrimidine-5-carboxylic acid (tetrahydropyran-4-ylmethyl)-amide]",20 to 300 nM,> 50%
–,"CN(CC1CCC1)C(=O)c1cnc(Nc2cccc(Cl)c2)nc1C(F)(F)F [Example 188, 2-(3-Chlorophenylamino)-4-trifluoromethyl-pyrimidine-5-carboxylic acid cyclobutylmethyl-methyl-amide]",20 to 300 nM,> 50%
–,"CN(CC1CCCCC1)C(=O)c1cnc(Nc2cccc(Cl)c2)nc1C(F)(F)F [Example 189, 2-(3-Chlorophenylamino)-4-trifluoromethyl-pyrimidine-5-carboxylic acid cyclohexylmethyl-methyl-amide]",20 to 300 nM,> 50%
–,"CN(CC1CCCC1)C(=O)c1cnc(Nc2cccc(Cl)c2)nc1C(F)(F)F [Example 190, 2-(3-Chlorophenylamino)-4-trifluoromethyl-pyrimidine-5-carboxylic acid cyclopentylmethyl-methyl-amide]",20 to 300 nM,> 50%
–,"O=C(NCC1CCC1)c1cnc(Nc2cc(Cl)ccc2F)nc1C(F)(F)F [Example 191, 2-(5-Chloro-2-fluorophenylamino)-4-trifluoromethyl-pyrimidine-5-carboxylic acid cyclobutylmethyl-amide]",20 to 300 nM,> 50%
–,"O=C(NCC1CCC1)c1cnc(Nc2cc(F)cc(F)c2)nc1C(F)(F)F [Example 192, 2-(3,5-Difluorophenylamino)-4-trifluoromethyl-pyrimidine-5-carboxylic acid cyclobutylmethyl-amide]",20 to 300 nM,> 50%
–,"O=C(NCC1CCC1)c1cnc(Nc2ccc(OC(F)(F)F)c(Cl)c2)nc1C(F)(F)F [Example 193, 2-(3-Chloro-4-trifluoromethoxyphenylamino)-4-trifluoromethyl-pyrimidine-5-carboxylic acid cyclobutylmethyl-amide]",20 to 300 nM,> 50%
–,"O=C(NCC1CCC1)c1cnc(Nc2cccc(Cl)c2F)nc1C(F)(F)F [Example 195, 2-(3-Chloro-2-fluorophenylamino)-4-trifluoromethyl-pyrimidine-5-carboxylic acid cyclobutylmethyl-amide]",20 to 300 nM,> 50%
–,"O=C(NCC1CCC1)c1cnc(Nc2ccc(C(F)(F)F)c(F)c2)nc1C(F)(F)F [Example 196, 2-(3-Fluoro-4-trifluoromethylphenylamino)-4-trifluoromethyl-pyrimidine-5-carboxylic acid cyclobutylmethyl-amide]",20 to 300 nM,> 50%
–,N#Cc1ccc(Nc2ncc(C(=O)NCC3CCC3)c(C(F)(F)F)n2)cc1Cl [Example 197],–,> 50%

EC50 (read-out: EC50 value at the cloned human cannabinoid CB2 receptor),Structure (SMILES),EC50 [1],Emax
–,"O=C(NCC1CCC1)c1cnc(Nc2cccc(F)c2)nc1C(F)(F)F [Example 198, 2-(3-Fluorophenylamino)-4-trifluoromethyl-pyrimidine-5-carboxylic acid cyclobutylmethyl-amide]",20 to 300 nM,> 50%
–,"O=C(NCC1CCC1)c1cnc(Nc2cccc(Br)c2)nc1C(F)(F)F [Example 199, 2-(3-Bromophenylamino)-4-trifluoromethyl-pyrimidine-5-carboxylic acid cyclobutylmethyl-amide]",20 to 300 nM,> 50%
–,"O=C(NCC1CCC1)c1cnc(Nc2cccc(Cl)c2Cl)nc1C(F)(F)F [Example 200, 2-(2,3-Dichlorophenylamino)-4-trifluoromethyl-pyrimidine-5-carboxylic acid cyclobutylmethyl-amide]",20 to 300 nM,> 50%
–,"O=C(NCC1CCC1)c1cnc(Nc2ccc(Cl)cc2Cl)nc1C(F)(F)F [Example 201, 2-(2,4-Dichlorophenylamino)-4-trifluoromethyl-pyrimidine-5-carboxylic acid cyclobutylmethyl-amide]",20 to 300 nM,> 50%
–,"O=C(NCC1CCC1)c1cnc(Nc2cc(Cl)ccc2Cl)nc1C(F)(F)F [Example 202, 2-(2,5-Dichlorophenylamino)-4-trifluoromethyl-pyrimidine-5-carboxylic acid cyclobutylmethyl-amide]",20 to 300 nM,> 50%
–,"O=C(NCC1CCC1)c1cnc(Nc2c(Cl)cccc2Cl)nc1C(F)(F)F [Example 203, 2-(2,6-Dichlorophenylamino)-4-trifluoromethyl-pyrimidine-5-carboxylic acid cyclobutylmethyl-amide]",20 to 300 nM,> 50%
–,"O=C(NCC1CCC1)c1cnc(Nc2ccc(Cl)c(Cl)c2)nc1C(F)(F)F [Example 204, 2-(3,4-Dichlorophenylamino)-4-trifluoromethyl-pyrimidine-5-carboxylic acid cyclobutylmethyl-amide]",20 to 300 nM,> 50%
–,"COc1cccc(Nc2ncc(C(=O)NCC3CCC3)c(C(F)(F)F)n2)c1 [Example 205, 2-(3-Methoxyphenylamino)-4-trifluoromethyl-pyrimidine-5-carboxylic acid cyclobutylmethyl-amide]",20 to 300 nM,> 50%
–,"O=C(NCC1CCC1)c1cnc(Nc2cc(Cl)cc(Cl)c2)nc1C(F)(F)F [Example 206, 2-(3,5-Dichlorophenylamino)-4-trifluoromethyl-pyrimidine-5-carboxylic acid cyclobutylmethyl-amide]",20 to 300 nM,> 50%
–,"O=C(NC1CCCC1)c1cnc(Nc2cccc(Br)c2)nc1C(F)(F)F [Example 207, 2-(3-Bromophenylamino)-4-trifluoromethyl-pyrimidine-5-carboxylic acid cyclopentylamide]",20 to 300 nM,> 50%
–,"O=C(NC1CCCC1)c1cnc(Nc2ccc(Cl)cc2Cl)nc1C(F)(F)F [Example 208, 2-(2,4-Dichlorophenylamino)-4-trifluoromethyl-pyrimidine-5-carboxylic acid cyclopentylamide]",20 to 300 nM,> 50%
–,"O=C(NC1CC1)c1cnc(Nc2cccc(Cl)c2)nc1C(F)(F)F [Example 209, 2-(3-Chlorophenylamino)-4-trifluoromethyl-pyrimidine-5-carboxylic acid cyclopropylamide]",20 to 300 nM,> 50%
–,"CN(CC1CCOCC1)C(=O)c1cnc(Nc2cccc(Cl)c2)nc1C(F)(F)F [Example 211, 2-(3-Chlorophenylamino)-4-trifluoromethyl-pyrimidine-5-carboxylic acid methyl-(tetrahydro-pyran-4-ylmethyl)-amide]",20 to 300 nM,> 50%
20 to 300 nM,"O=C(NCC1CCOCC1)c1cnc(Nc2cccc(Cl)c2F)nc1C(F)(F)F [Example 212, 2-(2-Fluoro-3-chloro-phenylamino)-4-trifluoromethyl-pyrimidine-5-carboxylic acid (tetrahydro-pyran-4-ylmethyl)-amide]",–,–
–,"O=C(NCC1CCOCC1)c1cnc(Nc2cc(Cl)ccc2F)nc1C(F)(F)F [Example 213, 2-(2-Fluoro-5-chloro-phenylamino)-4-trifluoromethyl-pyrimidine-5-carboxylic acid (tetrahydro-pyran-4-ylmethyl)-amide]",20 to 300 nM,> 50%
–,"O=C(NCC1CCOCC1)c1cnc(Nc2cc(F)cc(F)c2)nc1C(F)(F)F [Example 214, 2-(3,5-Difluorophenylamino)-4-trifluoromethyl-pyrimidine-5-carboxylic acid (tetrahydro-pyran-4-ylmethyl)-amide]",20 to 300 nM,> 50%

# Reference: patent US20080132505A1 (Glaxo Group Limited, priority 2004, published 2008)
